Source: article PMC11912471 (Journal of Medicinal Chemistry, 2025)
Structures can show the parent of a compound that is named as a salt.

Columns and labels:
[1] = system: normal primary human neonatal fibroblast cells; experiment: Sulforhodamine B (SRB) cytotoxicity assay, neonatal fibroblasts; type: cell-based; conditions: 500 μM; for Cell cytotoxicity (72 hr @ 500 μM) Neonatal Fibroblasts: percent cytotoxicity
Description: (§1) Our strategy to identify novel ODC inhibitors was to first screen new analogs for ODC inhibition at 50 μM using our in vitro enzyme activity assay and purified human ODC (Table 1). Those showing significant inhibition were then titrated to provide an ODC IC50 followed by cell-based screening against both cancer (Kelly neuroblastoma) and noncancerous (neonatal fibroblasts) cell lines. For the cancer cell line, higher cytotoxicity was desired and for the noncancerous cell line counter screen, lower cytotoxicity was desired.
(§2) Normal primary human neonatal fibroblast cells (ATCC) were maintained in DMEM medium (Gibco) supplemented with 10% heat-inactivated fetal bovine serum (Hyclone), penicillin (100 IU/mL), and streptomycin (100 μg/mL), nonessential amino acids (0.1 mM) and sodium pyruvate (1 mM). Kelly neuroblastoma cells (Sigma-Aldrich) were maintained in RPMI medium (Corning) supplemented with 10% heat-inactivated fetal bovine serum (Hyclone), penicillin (100 IU/mL), and streptomycin (100 μg/mL). Cell lines were routinely monitored for mycoplasma contamination using the MycoAlert PLUS Mycoplasma Detection Kit (Lonza).
(§3) The colorimetric sulforhodamine B (SRB) assay was used to measure cytotoxicity following treatment with ODC inhibitors. Briefly, Kelly neuroblastoma cells and normal primary human neonatal fibroblast cells were plated in transparent flat 96-well plates and allowed to attach overnight. Cells were treated with control or 500 μM ODC inhibitor for 72 h. Cells were then fixed with 10% TCA at 4 °C for 1 h, washed with deionized water, and dried at room temperature. Cells were stained with 100 μL of 0.4% SRB in 1% acetic acid for 20 min at room temperature, rinsed five times with 1% acetic acid and allowed to dry at room temperature. One hundred μL of 10 mM Tris–HCl pH 7.0 was added to each well, shaken for 10 min at room temperature and absorbance was read at 540 nm. Absorbance values were normalized relative to control readings and converted to percentage by multiplying by one hundred. The percent cytotoxicity was then determined by subtracting the relative percentage of the ODC inhibitor treated readings from the control which is 100%.

[2] = as above; type: cell-based, human; conditions: human, normal primary neonatal fibroblast cells; 72 hrs @500 µM; supplement csv
Description: as §1, §2, §3

[3] = system: Kelly neuroblastoma cells; experiment: Sulforhodamine B (SRB) cytotoxicity assay, Kelly neuroblastoma cells; type: cell-based; conditions: for Cell cytotoxicity (72 hr @ 500 μM) Kelly Neuroblastoma: percent cytotoxicity; for cytotoxicity at 500 µM: Kelly, 72 hrs @500 µM, supplement csv, read-out: Kelly Neuroblasoma Cells (72 hrs @500 µM) %cytotoxicity
Description: as §1, §2, §3

[4] = biological target: T1, endogenous ODC in Kelly neuroblastoma cells (Homo sapiens, UniProt P11926); experiment: Cell-based ODC activity assay; conditions: 500 μM inhibitor, Figure 6A
T1 construct: host or cells: Kelly neuroblastoma cells
T1 sequence (P11926 1-461): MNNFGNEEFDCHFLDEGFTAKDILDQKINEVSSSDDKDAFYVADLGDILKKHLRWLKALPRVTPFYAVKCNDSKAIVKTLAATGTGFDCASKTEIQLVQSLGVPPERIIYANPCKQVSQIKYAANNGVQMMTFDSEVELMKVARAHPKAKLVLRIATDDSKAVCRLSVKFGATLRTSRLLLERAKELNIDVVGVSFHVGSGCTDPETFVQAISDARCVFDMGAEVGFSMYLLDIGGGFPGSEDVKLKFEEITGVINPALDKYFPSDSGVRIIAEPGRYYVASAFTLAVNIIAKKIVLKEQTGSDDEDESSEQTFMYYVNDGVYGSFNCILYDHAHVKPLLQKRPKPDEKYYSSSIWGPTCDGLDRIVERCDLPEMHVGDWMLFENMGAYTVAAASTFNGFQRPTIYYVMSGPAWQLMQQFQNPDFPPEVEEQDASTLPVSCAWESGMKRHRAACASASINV
Description: In vitro ODC activity was measured using 100 ng of purified human ODC enzyme, as we previously described.[53],[99] ODC was incubated with increasing concentrations of inhibitors for 30 min at room temperature in a buffer containing 25 mM Tris and 0.1 mM EDTA. Each of the reactions was added to 200 μL of assay mix containing 6.25 mM Tris HCl (pH 7.5), 100 μM L-ornithine, 50 μM pyridoxal-5-phosphate, 1.56 mM DTT and 0.1 μCi [1–14C] L-ornithine (American Radiolabeled Chemicals, Inc., specific activity 55 mCi/mmol) in a microcentrifuge tube. In the cell-based ODC activity assay, Kelly neuroblastoma cells that were treated with 500 μM inhibitors were harvested in a buffer containing 25 mM Tris HCl, 0.1 mM EDTA, and 2.5 mM DTT. Fifty microliters of each homogenate were added to 200 μL of assay mix containing 6.25 mM tris HCl (pH 7.5), 500 μM L-ornithine, 50 μM pyridoxal-5-phosphate, 1.56 mM DTT and 0.1 μCi [1–14C] L-ornithine (American Radiolabeled Chemicals, Inc., specific activity 55 mCi/mmol) in a microcentrifuge tube. […] Disintegrations per minute (DPM) of each sample was measured using a TriCarb liquid scintillation counter (PerkinElmer). The specific ODC activity is expressed as nmol CO2/min/mg protein (in vitro) or pmol CO2/min/mg protein (cell-based). The individual ODC inhibitor IC50 values were determined using Graphpad Prism 8.

| endogenous cellular ODC activity relative to control (in words) [4] | SMILES | cytotoxic activity against neonatal fibroblasts (in words) ([1]; 72 h) | Cell cytotoxicity (72 hr @ 500 μM) Neonatal Fibroblasts [1] [%] | cytotoxicity at 72 h, 500 µM [2] [%] | activity against Kelly neuroblastoma cells (in words) ([3]; 72 h, 500 μM) | Cell cytotoxicity (72 hr @ 500 μM) Kelly Neuroblastoma ([3]; 500 μM) [%] | cytotoxicity at 500 µM [3] [%] |
| --- | --- | --- | --- | --- | --- | --- | --- |
| significantly reduced | NCCCON [APA, 3-(Aminooxy)propan-1-Amine Dihydrochloride] | somewhat reduced overt cytotoxic activity | 37±10 | 37 | greater anticancer activity | 77±21 | 77 |
| greatest reduction | Cl.Cl.NOCC1(F)CCNC1 (stereo not drawn) [Compound 11, 3-[(aminooxy)methyl]-3-fluoropyrrolidine di-formic acid] |  | 21±17 | 21 |  | 46±9 | 46 |
